# According to patent publication US20120053119A1, “THERAPEUTIC METHOD FOR INCREASING PANCREATIC BETA CELL MASS” (priority 2009, published 2012):
# Key:
# Type in all cases: cell-based
# INS-1 cells = assay: Thapsigargin-induced apoptosis, TUNEL staining; details: co-incubation with SDF-1
# Description: (§1) FIG. 6. Inhibition of apoptosis by SDF-1 in INS-1 and MIN-6 cells is reversed by knock-down of betacatenin. A. Western blot analysis of extracts from MIN6 cells that were mock treated, thapsigargin-treated (1 μM) and/or siRNA transfected (0.25 mg/ml), by using anti-serum against cleaved caspase-3 (upper panel), anti-serum against cleaved PARP (middle panel) and actin antibody (lower panel) as a loading control. B. Caspase-3 activity (fluorescence/mg proteinx105) of INS-1 or MIN6 cells mock treated, thapsigargin-treated (1 μM) and/or siRNA transfected (0.25 mg/ml). Results are presented as mean±SD for n=3 independent experiments, All values are relative to the first (leftmost) bar. Statistical significance is depicted as * (p<0.05) when compared with control values (leftmost bar) and # (<0.05) when compared with 1 mM thapsigargin treatment. C. Representative images are shown for TUNEL staining of INS-1 cells of n=3 independent experiments. Quantification of apoptotic cells is expressed as percent apoptotic cells relative to the total cells counted (lower left panel). […]
# DAPI (nuclei fluorescence) and TUNEL staining For the terminal deoxynucleotidyl transferase mediated dUTP nick end labeling (TUNEL) assay, cells seeded in 4-well chamber slides (Lab-Tak) were treated with thapsigargin and TUNEL assay performed (DeadEnd™ Fluorimetric TUNEL System kit, Promega). […]
# MIN6 cells = assay: Thapsigargin-induced apoptosis, Western immunoblot of cleaved caspase-3 and cleaved PARP; details: SDF-1 10 nM with thapsigargin 1 microM, 16 h
# Description: as §1, with “Statistical significance is depicted as * (p<0.05) when compared with control values (leftmost bar) and # (<0.05) when compared with 1 mM thapsigargin treatment. C. Representative images are shown for TUNEL staining of INS-1 cells of n=3 independent experiments.” left out
# Thapsigargin-induced apoptosis in INS-1 or MIN6 cells For western immuoblot assay (Cell Signaling), MIN6 cells were seeded into 6 well plates then treated with 1 microM thapsigargin or DMSO control for 16 h and apoptotic activity was measured by Western immunoblotting using antisera specific for cleaved (active) caspase-3 (Cell signaling #9661) and cleaved (active) PARP (Cell signaling #9548). For caspase-3 assay, INS-1 cells or MIN-6 cells in 24-well plates were treated with 1 microM thapsigargin or DMSO for 16 hand caspase-3 activity was determined (Molecular Probes). […]
# mouse islets = assay: GLP-1 production in mouse islets ex vivo, radioimmunoassay; details: batches of 50 islets, medium 1 and 4 hours, lysate 4 hr; SDF-1 10 nM
# Description: FIG. 37. Cytokines and SDF-1 stimulate GLP-1 production in mouse islets ex vivo. Batches of 50 islets were treated with control, cytokine mixture, or 10 nM SDF-1. Medium was collected in 1 hr and 4 hr. Islet lysate was collected in 4 hr. GLP-1. Immunoreactive protein was measured by radioimmunoassay.
# Batches of 50 islets were treated with a control vehicle, a cytokine mixture, or 10 nM SDF-1. Medium was collected from each batch at 1 hour and 4 hours, and islet lysate was collected in 4 hr. the concentration of GLP-1 contained in each sample collected was measured by radioimmunoassay of the immunoreactive protein.
substance,measurement,setting,value
"SDF-1: small, secreted 70 amino acid peptide chemokine, SEQ ID NO: 1, ligand of CXCR4",effect on thapsigargin-increased number of TUNEL positive cells,INS-1 cells,inhibited
same,effect on thapsigargin-increased levels of cleaved caspase-3 and PARP,MIN6 cells,inhibited
same,production of GLP-1 by mouse islets,mouse islets,induces the production of GLP-1
